The nature of the data set: Human HepG2 cell viability assay in 384 well format. The format is toxicity, cell-based. The arrangement: dose 125 nL, time 70.5 hour; concentration not given beside the values. The note with it: HepG2 cells, read-out: Inhibition.

For `COc1ccc2[nH]cc(C(=O)CNc3nc(C)cs3)c2c1`, the cytotoxicity at 70.5 h was 6.66%.
Consider `Oc1ccc(N2CCN(Cc3cc4c(cc3Br)OCCO4)CC2)cc1`, for which the cytotoxicity at 70.5 h is 5.3%.
The same measure for `O=C1CSC(c2ccc3c(c2)OCO3)c2cnn(C3CCCCC3)c2N1` (centres undefined): -13.7%.
Turning to `Cc1ncoc1C(=O)N1CCOC(Cc2ccccc2)C1` (centres undefined), the cytotoxicity at 70.5 h was -6.6%.
The same measure for `Cn1cc(CN2CCOC(Cc3cccc(F)c3)C2)cn1` (centres undefined): -6%; for `Fc1ccc(-c2noc(CN3CCC(c4cc[nH]n4)CC3)n2)cc1`: -3.56%; for `N#Cc1ccc(CN2CCC(CCc3ccc(O)cc3)CC2)cc1`: 11%.
As for `CC(C)(C)NC(=O)CN1CCCN(c2ccc(C#N)cn2)CC1`, the cytotoxicity at 70.5 h is -6.98%.
With `CCCn1nnnc1COc1cc(OC)ccc1C(=O)OC`, the cytotoxicity at 70.5 h is -7.14%.
Then `Cc1cc(C)nc(N2CCCC2c2cccnc2)n1` (centres undefined), with -2.91%.
Then `N#Cc1ncn(CCS(=O)(=O)c2ccc(Br)cc2)n1`, with 4.43%; and `FC(F)(F)c1[nH]nc2c1CN(Cc1ccccc1)CC2`, with -11.1%; and `CC(=O)c1ccc(C(=O)NCCCOC(C)c2ccccc2)s1` (centres undefined), with 1.1%.
The same measure for `CC(C)CNC(=O)CN(CC(=O)NCC(C)C)S(C)(=O)=O`: -8.05%.
Consider `Cc1cc(NCc2ccc(N3CCNC(=O)C3)cc2)nc(C)n1`, for which the cytotoxicity at 70.5 h was -1.91%.
On to `CC1CCN(Cc2cc(=O)[nH]c(=O)[nH]2)CC1`, for which the cytotoxicity at 70.5 h turned out to be 8.26%.
Then `O=C(NCC1CCCO1)C1CCN(Cc2nc(C3CC3)no2)CC1` (centres undefined), with 3.81%.
Regarding `CS(=O)(=O)NCC1CCCCN1C(=O)c1csc(-c2ccsc2)n1` (centres undefined), the cytotoxicity at 70.5 h was 0.102%.
The same measure for `COc1cc(C)c(C(C)NC(=O)c2cccnc2N(C)C)cc1OC` (centres undefined): -6.36%; for `Cc1csc(CCNc2ccc(C#N)cn2)n1`: -11.4%.
As to `Cc1ccc(F)cc1NC(=O)NCC(C)N1CCOCC1` (centres undefined), the cytotoxicity at 70.5 h turned out to be 9.4%.
Then `Cc1[nH]ncc1CCCNC(=O)Nc1ccc(C#N)cc1`, with -4.85%.
The same measure for `CN(C)c1nc2sc(C(=O)N3CCN(C(=O)OC(C)(C)C)CC3)cc2s1`: -8.07%.
The same measure for `Cc1nnc(CN2CCOC(c3ccc(Cl)cc3)C2)o1` (centres undefined): 0.631%.
Take `COCCOc1ncccc1CNC(=O)N1CCOCC1`: the cytotoxicity at 70.5 h is -7.27%.
Then `Cc1cc(C2CCCN2CCCc2nc3ccccc3o2)on1` (centres undefined), with -16.1%.
In the case of `O=C(c1cccnc1Oc1ccccc1)N1CCCn2ncnc21`, the cytotoxicity at 70.5 h was determined as 4.54%.
`COC(=O)c1cccc(C(=O)N(C)Cc2cccc(O)c2)c1`: the cytotoxicity at 70.5 h was 15.5%.
For the compound `CC(C)(CNc1ccc(S(=O)(=O)C(F)F)cc1)N1CCOCC1`, the cytotoxicity at 70.5 h came out at 18.8%.
The same measure for `CS(=O)(=O)N1CCN(Cc2ccc(F)cc2Br)CC1`: -9.98%.
On to `O=C1CCCc2cc(-c3csc(CCN4CCOC4=O)n3)ccc2N1`, for which the cytotoxicity at 70.5 h was -0.559%.
Then `Cc1nc2ccccc2c(=O)n1Cc1nnnn1C1CC1`, with 1.18%.
The same measure for `Cc1ccc(C(=O)N(C)CC(=O)NCC(F)(F)F)cn1`: 0.05%.
Then `c1ccc(C2CCN(c3cncc(-n4cccn4)n3)CC2)cc1`, with -4.22%; and `Cc1ncc(CN(C)C(=O)Nc2cccc(N3CCOC3=O)c2)s1`, with 25%.
Turning to `CC(=O)N(C)Cc1ccccc1NC(=O)c1cnn(C)c1C`, the cytotoxicity at 70.5 h was -0.121%.
With `COC(=O)C1CCN(C(=O)CN2CCN(c3cccc(C)c3)CC2)CC1`, the cytotoxicity at 70.5 h was -8.14%.
Regarding `CCC(NC(N)=O)c1ccccc1OCC(=O)N1CCCC1` (centres undefined), the cytotoxicity at 70.5 h was -10.1%.
Then `CS(=O)(=O)c1ccc(Cl)c(NC(=O)NCCC2=CCCCC2)c1`, with -8.84%; and `CCN(C(=O)c1cccc2c1OCO2)c1ccccc1`, with -4.98%; and `Cc1nn(C)c(Cl)c1S(=O)(=O)N(C)C`, with 1.44%.
The same measure for `Cc1ccnc(NC(=O)c2ccc(Br)o2)c1`: -4.47%.
The same measure for `COc1ccccc1COCC(O)CN(C)Cc1cccc(Cl)c1` (centres undefined): -23.5%; for `O=c1cc(CNCc2ccc3c(c2)OCO3)nc2ccc(Br)cn12`: 0.0084%.
Regarding `Cc1ccc(C(CC(=O)O)NC(=O)CCc2cccs2)cc1` (centres undefined), the cytotoxicity at 70.5 h is -1.09%.
For `Cc1ccc(Cl)cc1N1CCN(CC(=O)NC(C)c2ccco2)CC1` (centres undefined), the cytotoxicity at 70.5 h is 1.33%.
In the case of `COCCCN(Cc1ccccn1)S(=O)(=O)N(C)C`, the cytotoxicity at 70.5 h turned out to be 26.3%.
The same measure for `CC(C)Oc1ccc(C(=O)Nc2nncs2)cn1`: 5.43%; for `CN(C)C(=O)c1cccc(CNc2ccc(C#N)cn2)c1`: 5.12%.
With `CN(c1cccnn1)C1CCN(C(=O)c2n[nH]c3c2CCC3)CC1`, the cytotoxicity at 70.5 h was -4.09%.
For `CC(=O)Nc1nc(-c2ccccc2)c[nH]1`, the cytotoxicity at 70.5 h was determined as 3.67%.
The same measure for `CCC1CCCCCN1C(=O)c1nnc2ccccc2c1N` (centres undefined): -2.66%; for `CCCS(=O)(=O)N1CCN(c2cc(-n3cccc3)nc(C)n2)CC1`: -5.53%.
With `CC(=O)OC1CN(c2nc3c(C(F)(F)F)cccc3s2)C1`, the cytotoxicity at 70.5 h was -11.8%.
`CC(=O)N1CCC(CSCc2ccco2)CC1`: the cytotoxicity at 70.5 h turned out to be 12.9%.
The same measure for `O=C(c1ccco1)N1CCC(CSCc2ccco2)CC1`: -7.2%; for `O=C(c1ccccn1)N1CCC(Oc2cccnc2)CC1`: -8.37%; for `COCCc1noc(C2CCN(S(=O)(=O)c3cccs3)CC2)n1`: 10.6%.
As for `COc1c2ccc(C(=O)NCCCn3ncccc3=O)cc2nn1C`, the cytotoxicity at 70.5 h amounted to 13.9%.
As for `CC(=O)N1CCc2[nH]c(=O)ccc2C1`, the cytotoxicity at 70.5 h is -6.79%.
Then `CN(C)CC1CSCCCN1C(=O)c1ccc(-n2cccc2)cc1` (centres undefined), with -4.81%.
Then `CN(C)CC1CSCCCN1C(=O)c1ccc(-c2ccccc2)cc1` (centres undefined), with -0.605%; and `CN(C)c1cccc(C(=O)N2CCCSCC2CN2CCCC2)c1` (centres undefined), with 3.97%; and `N#Cc1ccc(C(=O)N2CCCSCC2CN2CCCC2)cc1` (centres undefined), with -5.18%.
Take `COc1cccc(OCC(=O)N2CCCSCC2CN2CCOCC2)c1` (centres undefined): the cytotoxicity at 70.5 h came to 14.1%.
Then `Cc1cccnc1NC(=O)C1CSc2ncc(C)c(=O)n2C1` (centres undefined), with -2.04%.
On to `CC(C)(C)c1cc(=O)n2c(n1)SCC(C(=O)NCc1cccs1)C2` (centres undefined), for which the cytotoxicity at 70.5 h came to 0.387%.
Regarding `COc1cc(C(=O)NCCCc2ccccc2)on1`, the cytotoxicity at 70.5 h is -1.09%.
Then `O=C(Cn1c(=O)oc2ccccc21)NCC(O)c1ccc2c(c1)CCO2` (centres undefined), with -2.64%; and `Cc1noc(C)c1S(=O)(=O)NCC(O)c1ccc2c(c1)CCO2` (centres undefined), with 17.6%.
Turning to `COc1nn(C)cc1C(=O)NCC1(O)CCc2ccccc2C1` (centres undefined), the cytotoxicity at 70.5 h is -5.25%.
The same measure for `COCCN(Cc1ccoc1)C(=O)c1ccccc1OC`: -1.89%; for `COCCN(Cc1ccoc1)C(=O)c1ccc(Cl)s1`: -6.8%.
As for `CCSc1ccccc1C(=O)N(CCOC)Cc1ccoc1`, the cytotoxicity at 70.5 h worked out at 25%.
The same measure for `COCCN(Cc1ccoc1)S(=O)(=O)c1ccc(OC)c(Cl)c1`: -20.8%; for `CCOC(=O)NCCC(O)c1ccoc1` (centres undefined): -11.9%.
Then `Cc1cc(C(O)CCNC(=O)COc2ccccc2F)c(C)o1` (centres undefined), with -0.424%; and `Cc1cc(C(O)CCNS(=O)(=O)c2ccc(Cl)s2)c(C)o1` (centres undefined), with -15.4%.
With `COC1(CNC(=O)c2ccoc2)CCSC1` (centres undefined), the cytotoxicity at 70.5 h was -11%.
As to `COc1ccc(OC)c(S(=O)(=O)NCC2(OC)CCSC2)c1` (centres undefined), the cytotoxicity at 70.5 h was -7.48%.
Then `COC1(CNS(=O)(=O)c2ccccc2Br)CCSC1` (centres undefined), with -4.04%; and `COc1ccc(C(=O)Nc2ccccc2-c2ccc(=O)n(C)n2)cc1`, with 3.05%; and `Cn1nc(-c2ccccc2NC(=O)c2cncc(Br)c2)ccc1=O`, with 15.4%.
The same measure for `O=C(NCC(F)(F)F)c1ccc(-n2cncn2)nn1`: 1.36%.
Turning to `Cc1ccc(C(=O)NCCn2nc(-n3cncn3)ccc2=O)c(C)c1`, the cytotoxicity at 70.5 h is 29.8%.
On to `CS(=O)(=O)C1CCN(S(=O)(=O)c2ccc(F)c(F)c2)C1` (centres undefined), for which the cytotoxicity at 70.5 h was -5.07%.
On to `CS(=O)(=O)C1CCN(S(=O)(=O)Cc2cccc(F)c2)CC1`, for which the cytotoxicity at 70.5 h was determined as 0.12%.
Then `CS(=O)(=O)C1CCN(S(=O)(=O)c2ccc(F)c(F)c2)CC1`, with 1.4%.
Consider `O=C(CN1C(=O)CCC1=O)N1Cc2cncnc2C1`, for which the cytotoxicity at 70.5 h was -2.85%.
`CS(=O)(=O)N1CCCC1CS(=O)(=O)c1ccccc1` (centres undefined): the cytotoxicity at 70.5 h was -11.6%.
The same measure for `O=S(=O)(CC1CCCN1S(=O)(=O)C1CC1)c1ccccc1` (centres undefined): -6.46%; for `Cc1cc(CNC(=O)c2cnoc2C)c(C)o1`: -12%.
Then `Cn1cnc(S(=O)(=O)NCC(O)c2ccc3c(c2)CCO3)c1` (centres undefined), with -16.8%.
Take `Cn1cnc(S(=O)(=O)NCCC(O)c2ccc3c(c2)OCO3)c1` (centres undefined): the cytotoxicity at 70.5 h came to 20.5%.
Regarding `CN(C)C(=O)Cc1ccc(NC(=O)c2cn(C)nn2)cc1`, the cytotoxicity at 70.5 h was -4.9%.
On to `Cc1nsc(C(=O)NCCc2ccc(S(N)(=O)=O)cc2)n1`, for which the cytotoxicity at 70.5 h was -5.58%.
The same measure for `Cc1nsc(C(=O)NCCCc2ccccc2)n1`: -5.43%.
The same measure for `Cc1nsc(C(=O)NCCc2ccc(Cl)cc2)n1`: 2.81%.
As to `Cc1nsc(C(=O)NCCc2ccc(F)cc2)n1`, the cytotoxicity at 70.5 h is -1.44%.
Then `Cc1nsc(C(=O)NCCc2cccs2)n1`, with -5.79%.
Take `Cc1nc(N(C)C)nc(C)c1NC(=O)c1ccccc1F`: the cytotoxicity at 70.5 h was -7.08%.
Then `CS(=O)(=O)NCCNCc1ccc(Br)s1`, with 3.93%; and `COc1cc(CNC(C)c2ccc(F)c(F)c2)cc2c1OCCO2` (centres undefined), with 1.07%.
Then `COc1ccc(CN(C)CC(O)COCc2ccccc2Cl)c(OC)c1` (centres undefined), with 16.2%.
